Assay results as given in US11033539B2, “Compounds of formulas (VII), (VIII), (IX), (XI), (XII), (XIII), and (XIV) as muscarinic receptor 4(M4) antagonists for treating neurological diseases” (Neurocrine Biosciences, Inc., priority 2015, dated 2021).

Target: human M4 receptor (Homo sapiens (Human), UniProt P08173)
Test: Radioligand (tritiated N-methylscopolamine) binding assay, M4
Conditions: Ki against the M4 receptor; membranes from CHO cells expressing human M4; tritiated N-methylscopolamine 1.5 nM; read-out: Ki
Outline: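 Ki values come from displacement of 1.5 nM radioligand from membranes of receptor-expressing CHO cells, with filter-trapped radioactivity counted after rapid vacuum filtration. Twelve compound concentrations (10 μM to […]) were incubated for 90 min at 37 °C at pH 7.4.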

Chain of human M4 receptor (P08173 whole entry): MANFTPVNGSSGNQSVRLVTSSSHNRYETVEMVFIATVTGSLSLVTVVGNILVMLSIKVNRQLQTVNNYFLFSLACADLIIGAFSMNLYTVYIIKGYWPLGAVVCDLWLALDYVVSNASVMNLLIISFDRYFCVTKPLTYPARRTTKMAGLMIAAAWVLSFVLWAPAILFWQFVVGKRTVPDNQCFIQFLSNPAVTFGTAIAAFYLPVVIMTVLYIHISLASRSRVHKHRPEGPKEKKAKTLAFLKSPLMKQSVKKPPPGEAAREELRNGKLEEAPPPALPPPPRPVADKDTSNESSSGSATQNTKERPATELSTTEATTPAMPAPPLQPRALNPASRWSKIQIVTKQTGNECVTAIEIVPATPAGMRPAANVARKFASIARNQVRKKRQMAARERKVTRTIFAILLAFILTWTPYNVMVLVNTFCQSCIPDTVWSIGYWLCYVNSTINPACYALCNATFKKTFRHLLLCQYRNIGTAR

Ki [µM] | Compound
0.1 to 1 | O=C(NCCC1CCN(Cc2ccccc2)CC1)N1CCC(c2cccc(F)c2)CC1 [8-26, N-[2-(1-benzylpiperidin-4-yl)ethyl]-4-(3-fluorophenyl)piperidine-1-carboxamide]
0.01 to 0.1 | C[C@@H]1CN(c2nc(C#N)cc(C#N)n2)CCN1C(=O)NCCC1CCN(Cc2ccccc2)CC1 [4-75, (2R)-N-[2-(1-benzylpiperidin-4-yl)ethyl]-4-(4,6-dicyanopyrimidin-2-yl)-2-methylpiperazine-1-carboxamide]
0.1 to 1 | COc1cccnc1N1CCN(C(=O)NCCC2CCN(Cc3ccccc3)CC2)[C@H](C)C1 [4-8, (2R)-N-[2-(1-benzylpiperidin-4-yl)ethyl]-4-(3-methoxypyridin-2-yl)-2-methylpiperazine-1-carboxamide]
0.01 to 0.1 | C[C@@H]1CN(c2ncc(C#N)cc2F)C[C@H](C)N1C(=O)NCCC1CCN(Cc2ccccc2)CC1 [4-78, (2S,6R)-N-[2-(1-benzylpiperidin-4-yl)ethyl]-4-(5-cyano-3-fluoropyridin-2-yl)-2,6-dimethylpiperazine-1-carboxamide]
0.01 to 0.1 | C[C@@H]1CN(c2cc(F)cc(C#N)c2)CCN1C(=O)NC[C@H](O)C1CCN(Cc2ccccc2)CC1 [7-4, (2R)-N-[(2R)-2-(1-benzylpiperidin-4-yl)-2-hydroxyethyl]-4-(3-cyano-5-fluorophenyl)-2-methylpiperazine-1-carboxamide]
0.01 to 0.1 | COc1ccc(N2CCN(C(=O)NCCC3CCN(Cc4ccccc4)CC3)[C@H](C)C2)cc1F [4-70, (2R)-N-[2-(1-benzylpiperidin-4-yl)ethyl]-4-(3-fluoro-4-methoxyphenyl)-2-methylpiperazine-1-carboxamide]
0.01 to 0.1 | C[C@@H]1CN(c2cc(F)c(F)c(F)c2)CCN1C(=O)NCCC1CCN(Cc2cccc(F)c2)CC1 [6-10, (2R)-N-(2-{1-[(3-fluorophenyl)methyl]piperidin-4-yl}ethyl)-2-methyl-4-(3,4,5-trifluorophenyl)piperazine-1-carboxamide]

More lines, now with the values behind:

Compound | Ki [µM]
Cc1c(C(=O)NCCC2CCN(Cc3ccccc3)CC2)cnc2cc(-c3cccs3)nn12 [17-7, N-[2-(1-benzylpiperidin-4-yl)ethyl]-7-methyl-2-(thiophen-2-yl)pyrazolo[1,5-a]pyrimidine-6-carboxamide] | 0.1 to 1
CS(=O)(=O)c1cccc(N2CCC(C(=O)NCCC3CCN(Cc4ccccc4)CC3)CC2)c1 [10-65, N-[2-(1-benzylpiperidin-4-yl)ethyl]-1-(3-methanesulfonylphenyl)piperidine-4-carboxamide] | 0.1 to 1
O=C(NCCC1CCN(Cc2ccc(O)cc2)CC1)C1CCN(c2ccc(OC(F)(F)F)cc2)CC1 [11-1, N-(2-{1-[(4-hydroxyphenyl)methyl]piperidin-4-yl}ethyl)-1-[4-(trifluoromethoxy)phenyl]piperidine-4-carboxamide] | 0.01 to 0.1
O=C(NCCC1CCN(Cc2ccccc2)CC1)C1CCN(c2nccc(C(F)(F)F)n2)CC1 [10-30, N-[2-(1-benzylpiperidin-4-yl)ethyl]-1-[4-(trifluoromethyl)pyrimidin-2-yl]piperidine-4-carboxamide] | 0.01 to 0.1
O=C(c1ccc(-c2ccccc2)cc1)N(C1CC1)C1CCN(Cc2ccccc2)CC1 [9-2, N-(1-benzylpiperidin-4-yl)-N-cyclopropyl-4-phenylbenzamide] | 0.1 to 1
CC(C)CN1CCC(CCNC(=O)N2[C@H](C)CN(c3ncc(C#N)cn3)C[C@@H]2C)CC1 [21-6] | 0.1 to 1
CCC(C)NC(=O)c1cnc(N2C[C@@H](C)N(C(=O)NCCC3CCN(Cc4ccccc4)CC3)[C@@H](C)C2)nc1 (stereo partly shown) [27-8] | 0.1 to 1
COc1ncccc1-c1cc2ncc(C(=O)NCCC3CCN(Cc4ccccc4)CC3)c(C)n2n1 [18-14] | 0.01 to 0.1
C[C@@H]1CN(c2ncc(C(=O)NC3CC3)cn2)C[C@H](C)N1C(=O)NCCC1CCN(Cc2ccccc2)CC1 [27-1, 2-[(3R,5S)-4-{[2-(1-benzylpiperidin-4-yl)ethyl]carbamoyl}-3,5-dimethylpiperazin-1-yl]-N-cyclopropylpyrimidine-5-carboxamide] | 0.01 to 0.1
